Experimental data published in US12209102B2, “Heterocyclic compounds and uses thereof” (Kumquat Biosciences Inc., priority 2022, dated 2025).

Experiments:
SW620 cells = assay: Ras cellular assay, growth of cells with K-Ras G12V mutation (CellTiter-Glo); type: cell-based; details: Homo sapiens, SW-620; cell growth, Example 9, G12V mutation; read-out: IC50 against SW620 cells
Protocol: For example, this assay can be also used to assess a selective growth inhibition of a mutant Ras protein relative to a wildtype, or relative to a different mutant Ras protein.
SW620 (ATCC CCL-227) and Capan-1 (ATCC HTB-79) cell lines comprise a G12V mutation and can be used to assess Ras cellular signaling in vitro, e.g., in response to the compounds herein. SW620 culture medium is prepared with RPMI-1640 and 10% heat-inactivated FBS. Capan-1 culture medium is prepared with RPMI-1640 and 10% heat-inactivated FBS. A CellTiter-Glo (CTG) luminescent based assay (Promega) is used to assess growth of the cells, as a measurement of the ability of the compounds herein to inhibit Ras signaling in the cells. The cells (e.g., 800 per well) are seeded in their respective culture medium in standard tissue culture-treated 384-well format plates (Falcon #08-772-116) or ultra-low attachment surface 384-well format plates (S-Bio #MS-9384WZ). The day after plating, cells are treated with a dilution series (e.g., a 10 point 3-fold dilution series) of the compounds herein (e.g., approximately 40 μL final volume per well). Cell viability can be monitored (e.g., approximately 6 days later) according to the manufacturer's recommended instructions, where the CellTiter-Glo reagent is added (e.g., approximately 10 μL), vigorously mixed, covered, and placed on a plate shaker (e.g., approximately for 20 min) to ensure sufficient cell lysis prior to assessment of luminescent signal. The IC50 values are determined using the four parameter fit. The resulting IC50 value is a measurement of the ability of the compounds herein to reduce cell growth of Ras-driven cells (e.g., tumor cell lines) in vitro and/or in vivo.

K-Ras G12D = molecular target: T1, K-Ras G12D (Homo sapiens, UniProt P01116, G12D); assay: HTRF resonance energy transfer assay, K-Ras G12D / SOS1 interaction; type: biochemical; details: HTRF assay of Example 5; read-out: IC50 against K-Ras G12D
T1 construct: made in house; host or cells: E. coli BL21 (DE3)
T1 sequence (P01116 1-188 isoform P01116-2 G12D): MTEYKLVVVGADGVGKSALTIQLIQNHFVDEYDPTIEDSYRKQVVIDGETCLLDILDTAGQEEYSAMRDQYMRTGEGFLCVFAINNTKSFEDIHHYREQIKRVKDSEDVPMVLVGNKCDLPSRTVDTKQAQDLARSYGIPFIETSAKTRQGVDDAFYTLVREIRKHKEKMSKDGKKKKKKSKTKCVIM
Procedure, shortened: (§1)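 Compounds, tested in duplicate at 10 μM down to 0.01 μM, were read after about 10 min or more by HTRF as the 665/620 nm emission ratio (337 nm excitation) to derive IC50. This ratio reports FRET between an anti-GST-Eu donor on GST-K-Ras (wild-type or mutant) and an anti-6His-XL665 acceptor on His-hSOS1. Buffer: ~5 mM HEPES pH 7.4, 150 mM NaCl, 1 mM DTT, 0.05% BSA, 0.0025% Igepal.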

K-Ras G12S = molecular target: T2, K-Ras G12S (Homo sapiens, UniProt P01116, G12S); assay: HTRF resonance energy transfer assay, K-Ras G12S / SOS1 interaction; type: biochemical; details: HTRF assay of Example 5; read-out: IC50 against K-Ras G12S
T2 construct: made in house; host or cells: E. coli BL21 (DE3)
T2 sequence (P01116 1-188 isoform P01116-2 G12S): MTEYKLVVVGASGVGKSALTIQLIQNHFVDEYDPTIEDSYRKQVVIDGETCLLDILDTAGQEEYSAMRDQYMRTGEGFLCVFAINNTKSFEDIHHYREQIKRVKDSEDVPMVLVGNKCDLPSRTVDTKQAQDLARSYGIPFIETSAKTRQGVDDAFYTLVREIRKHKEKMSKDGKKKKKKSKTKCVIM
Procedure, shortened: as §1

K-Ras G12V = molecular target: T3, K-Ras G12V (Homo sapiens, UniProt P01116, G12V); assay: HTRF resonance energy transfer assay, K-Ras G12V / SOS1 interaction; type: biochemical; details: HTRF assay of Example 5; read-out: IC50 against K-Ras G12V
T3 construct: made in house; host or cells: E. coli BL21 (DE3)
T3 sequence (P01116 1-188 isoform P01116-2 G12V): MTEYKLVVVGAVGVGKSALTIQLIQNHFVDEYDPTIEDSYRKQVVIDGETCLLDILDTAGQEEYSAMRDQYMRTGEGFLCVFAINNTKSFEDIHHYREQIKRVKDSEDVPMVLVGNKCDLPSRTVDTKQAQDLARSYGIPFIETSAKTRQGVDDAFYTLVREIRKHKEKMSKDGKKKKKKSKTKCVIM
Procedure, shortened: as §1

K-Ras WT = molecular target: T4, K-Ras WT (Homo sapiens, UniProt P01116); assay: HTRF resonance energy transfer assay, K-Ras WT / SOS1 interaction; type: biochemical; details: HTRF assay of Example 5; read-out: IC50 against K-Ras WT
T4 construct: made in house; host or cells: E. coli BL21 (DE3)
T4 sequence (P01116 1-188 isoform P01116-2): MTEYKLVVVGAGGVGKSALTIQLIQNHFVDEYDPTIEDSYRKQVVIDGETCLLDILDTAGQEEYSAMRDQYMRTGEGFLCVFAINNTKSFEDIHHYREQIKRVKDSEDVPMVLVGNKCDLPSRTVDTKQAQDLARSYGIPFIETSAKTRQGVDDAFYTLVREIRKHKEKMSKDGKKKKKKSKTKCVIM
Procedure, shortened: as §1

In the case of N#Cc1c(N)sc2c(F)ccc(-c3c(Cl)c4c5c(nc(OC[C@@]67CCCN6C[C@H](F)C7)nc5c3F)N(C3CCOC3)[C@@H](C(F)F)CO4)c12 (stereo partly drawn) [Compound 747, 2-amino-4-((5R)-8-chloro-5-(difluoromethyl)-10-fluoro-2-(((2R,7aS)-2-fluorotetrahydro-1H-pyrrolizin-7a(5H)-yl)methoxy)-4-(tetrahydrofuran-3-yl)-5,6-dihydro-4H-[1,4]oxazepino[5,6,7-de]quinazolin-9-yl)-7-fluorobenzo[b]thiophene-3-carbonitrile], the IC50 (SW620 cells) is reported as < 5000 nM.

N#Cc1c(N)sc2c(F)ccc(-c3c(Cl)c4c5c(nc(OC[C@@]67CCCN6C[C@H](F)C7)nc5c3F)N(C3CCCCN(C(=O)C5CN5)C3)CCO4)c12 (stereo partly drawn) [Compound 992, 2-amino-4-(4-(1-(aziridine-2-carbonyl)azepan-3-yl)-8-chloro-10-fluoro-2-(((2R,7aS)-2-fluorotetrahydro-1H-pyrrolizin-7a(5H)-yl)methoxy)-5,6-dihydro-4H-[1,4]oxazepino[5,6,7-de]quinazolin-9-yl)-7-fluorobenzo[b]thiophene-3-carbonitrile] was tested, and the IC50 (SW620 cells) was < 5000 nM.

For N#Cc1c(N)sc2c(F)ccc(-c3c(Cl)c4c5c(nc(OC[C@@]67CCCN6C[C@H](F)C7)nc5c3F)N(CC(F)F)[C@@H](C3(O)CC3)CO4)c12 [Compound 1001, 2-amino-4-((R)-8-chloro-4-(2,2-difluoroethyl)-10-fluoro-2-(((2R,7aS)-2-fluorotetrahydro-1H-pyrrolizin-7a(5H)-yl)methoxy)-5-(1-hydroxycyclopropyl)-5,6-dihydro-4H-[1,4]oxazepino[5,6,7-de]quinazolin-9-yl)-7-fluorobenzo[b]thiophene-3-carbonitrile], the IC50 (SW620 cells) was < 5000 nM.

For N#Cc1c(N)sc2c(F)ccc(-c3c(Cl)c4c5c(nc(OC[C@@]67CCCN6C[C@H](F)C7)nc5c3F)N(C3CCCNCC3)CCO4)c12 (stereo partly drawn) [Compound 1059, 2-amino-4-(4-(azepan-4-yl)-8-chloro-10-fluoro-2-(((2R,7aS)-2-fluorotetrahydro-1H-pyrrolizin-7a(5H)-yl)methoxy)-5,6-dihydro-4H-[1,4]oxazepino[5,6,7-de]quinazolin-9-yl)-7-fluorobenzo[b]thiophene-3-carbonitrile], the IC50 (K-Ras G12D) was < 100 nM, the IC50 (K-Ras G12S) was < 100 nM and the IC50 (K-Ras G12V) was < 100 nM. The IC50 (K-Ras WT) was < 100 nM.

In the case of C#Cc1c(F)ccc2cc(O)cc(-c3nc4c5c(nc(OC[C@@]67CCCN6C[C@H](F)C7)nc5c3F)N(C3CCCN(C=O)C3)CCO4)c12 (stereo partly drawn) [Compound 1066, 3-(5-(8-ethynyl-7-fluoro-3-hydroxynaphthalen-1-yl)-4-fluoro-2-(((2R,7aS)-2-fluorotetrahydro-1H-pyrrolizin-7a(5H)-yl)methoxy)-8,9-dihydro-10H-7-oxa-1,3,6,10-tetraazacyclohepta[de]naphthalen-10-yl)piperidine-1-carbaldehyde], the IC50 (K-Ras G12D) is reported as < 100 nM, the IC50 (K-Ras G12S) is reported as < 100 nM and the IC50 (K-Ras G12V) is reported as < 100 nM. For the same compound, the IC50 (K-Ras WT) was < 100 nM.

With CC1(O)CCCC(N2CCOc3c(Cl)c(-c4ccc(F)c5sc(N)c(C#N)c45)c(F)c4nc(OC[C@@]56CCCN5C[C@H](F)C6)nc2c34)C1 (stereo partly drawn) [Compound 1069, 2-amino-4-(8-chloro-10-fluoro-2-(((2R,7aS)-2-fluorotetrahydro-1H-pyrrolizin-7a(5H)-yl)methoxy)-4-(3-hydroxy-3-methylcyclohexyl)-5,6-dihydro-4H-[1,4]oxazepino[5,6,7-de]quinazolin-9-yl)-7-fluorobenzo[b]thiophene-3-carbonitrile] the IC50 (K-Ras G12D) was < 100 nM, the IC50 (K-Ras G12S) was < 100 nM and the IC50 (K-Ras G12V) was < 100 nM. For the same compound, the IC50 (K-Ras WT) was < 100 nM.

C#C[C@H]1COc2c(Cl)c(-c3ccc(F)c4sc(N)c(C#N)c34)c(F)c3nc(OC[C@@]45CCCN4C[C@H](F)C5)nc(c23)N1CC(F)F [Compound 1075, 2-amino-4-((5S)-8-chloro-4-(2,2-difluoroethyl)-5-ethynyl-10-fluoro-2-(((2R,7aS)-2-fluorotetrahydro-1H-pyrrolizin-7a(5H)-yl)methoxy)-5,6-dihydro-4H-[1,4]oxazepino[5,6,7-de]quinazolin-9-yl)-7-fluorobenzo[b]thiophene-3-carbonitrile] was tested, and the IC50 (K-Ras G12D) was < 100 nM, the IC50 (K-Ras G12S) was < 100 nM and the IC50 (K-Ras G12V) was < 100 nM. For the same compound, the IC50 (K-Ras WT) was < 100 nM.

For CS(=O)(=O)N1CC1C(=O)NCCN1CCOc2c(Cl)c(-c3ccc(F)c4sc(N)c(C#N)c34)c(F)c3nc(OC[C@@]45CCCN4C[C@H](F)C5)nc1c23 (stereo partly drawn) [Compound 1077, N-(2-(9-(2-amino-3-cyano-7-fluorobenzo[b]thiophen-4-yl)-8-chloro-10-fluoro-2-(((2R,7aS)-2-fluorotetrahydro-1H-pyrrolizin-7a(5H)-yl)methoxy)-5,6-dihydro-4H-[1,4]oxazepino[5,6,7-de]quinazolin-4-yl)ethyl)-1-(methylsulfonyl)aziridine-2-carboxamide], the IC50 (K-Ras G12D) was < 100 nM, the IC50 (K-Ras G12S) was < 100 nM and the IC50 (K-Ras G12V) was < 100 nM. For the same compound, the IC50 (K-Ras WT) was < 100 nM.

With N#Cc1c(N)sc2c(F)ccc(-c3c(Cl)c4c5c(nc(OC[C@@]67CCCN6C[C@H](F)C7)nc5c3F)N(CC(F)F)[C@@H](C3CC3C#N)CO4)c12 (stereo partly drawn) [Compound 1078, 2-amino-4-((5S)-8-chloro-5-(2-cyanocyclopropyl)-4-(2,2-difluoroethyl)-10-fluoro-2-(((2R,7aS)-2-fluorotetrahydro-1H-pyrrolizin-7a(5H)-yl)methoxy)-5,6-dihydro-4H-[1,4]oxazepino[5,6,7-de]quinazolin-9-yl)-7-fluorobenzo[b]thiophene-3-carbonitrile] the IC50 (K-Ras G12D) was < 100 nM, the IC50 (K-Ras G12S) was < 100 nM and the IC50 (K-Ras G12V) was < 100 nM. For the same compound, the IC50 (K-Ras WT) was < 100 nM.

With N#Cc1c(N)sc2c(F)ccc(-c3c(Cl)c4c5c(nc(OC[C@@]67CCCN6C[C@H](F)C7)nc5c3F)N(CC(F)F)C(C3CNC3)CO4)c12 (stereo partly drawn) [Compound 1131, 2-amino-4-(5-(azetidin-3-yl)-8-chloro-4-(2,2-difluoroethyl)-10-fluoro-2-(((2R,7aS)-2-fluorotetrahydro-1H-pyrrolizin-7a(5H)-yl)methoxy)-5,6-dihydro-4H-[1,4]oxazepino[5,6,7-de]quinazolin-9-yl)-7-fluorobenzo[b]thiophene-3-carbonitrile] the IC50 (K-Ras G12D) was < 100 nM, the IC50 (K-Ras G12S) was < 100 nM and the IC50 (K-Ras G12V) was < 100 nM. For the same compound, the IC50 (K-Ras WT) was < 100 nM.

In the case of N#Cc1c(N)sc2c(F)ccc(-c3c(Cl)c4c5c(nc(OC[C@@]67CCCN6C[C@H](F)C7)nc5c3F)N(CC3(N)CCC3)CCCO4)c12 [Compound 1213, 2-amino-4-(4-((1-aminocyclobutyl)methyl)-9-chloro-11-fluoro-2-(((2R,7aS)-2-fluorotetrahydro-1H-pyrrolizin-7a(5H)-yl)methoxy)-4,5,6,7-tetrahydro-[1,5]oxazocino [4,3,2-de]quinazolin-10-yl)-7-fluorobenzo[b]thiophene-3-carbonitrile], the IC50 (K-Ras G12D) is reported as < 100 nM, the IC50 (K-Ras G12S) is reported as < 100 nM and the IC50 (K-Ras G12V) is reported as < 100 nM. For the same compound, the IC50 (K-Ras WT) was < 100 nM.

For N#Cc1c(N)sc2c(F)ccc(-c3c(Cl)c4c5c(nc(OC[C@@]67CCCN6C[C@H](F)C7)nc5c3F)NCCC(CO)O4)c12 (stereo partly drawn) [Compound 1214, 2-amino-4-(9-chloro-11-fluoro-2-(((2R,7aS)-2-fluorotetrahydro-1H-pyrrolizin-7a(5H)-yl)methoxy)-7-(hydroxymethyl)-4,5,6,7-tetrahydro-[1,5]oxazocino[4,3,2-de]quinazolin-10-yl)-7-fluorobenzo[b]thiophene-3-carbonitrile], the IC50 (K-Ras G12D) was < 100 nM, the IC50 (K-Ras G12S) was < 100 nM and the IC50 (K-Ras G12V) was < 100 nM. The IC50 (K-Ras WT) was < 100 nM.
